Key:
Assay type in all cases: physicochemical
[1] = Transfer of inverse-emulsion water droplets to an aqueous surfactant phase, detected by AgCl precipitate
Method: In a first step, a monodisperse water-in-dodecane inverse emulsion which is stabilized with Span 80® (sorbitan monooleate from the company Sigma) is prepared. This emulsion is prepared by slowing introducing the disperse aqueous phase (80% by volume) with gentle shearing (of the order of 1000 s^−1) into a continuous phase composed of a dodecane/Span 80 mixture in a 1/1 ratio by weight. Sodium chloride NaCl (0.1M), intended to simulate the presence of the active principle in the aqueous phase A1, is added. Advantageously, it has been shown that the presence of this salt reinforces the stability of the inverse emulsion Ei (Aronson M. P., Petko M. F., J. Colloid Interface Sci., 1993, 159, 134). The initial polydisperse emulsion is converted by a fractional crystallisation technique (Bibette J., J. Colloid Interface Sci., 1991, 147, 474) into a monodisperse emulsion.
Several multiple emulsions were subsequently prepared from this inverse emulsion by mixing it with an aqueous solution comprising sodium dodecyl sulphate (SDS, HLB=40) at various concentrations below or greater than its critical micelle concentration, which is 8×10^−3 mol/l.
The test consists in carefully bringing together (over an area of 1 cm^2) equivalent volumes (1 cm^3) of the inverse emulsion and of water comprising variable amounts of SDS surfactant and a concentration of AgNO3 at a concentration of 10^−3 mol/l. The transfer of the water present in the inverse droplets to the macroscopic aqueous phase is detected by observation of an AgCl precipitate which is formed at the macroscopic interface when the internal contents transfer to the external phase. This is because, when the water droplets move via a coalescence phenomenon from the upper inverse emulsion to the lower aqueous phase, the upper phase gradually becomes transparent whereas the lower phase gradually becomes milky.
Above this limit concentration, the water droplets quickly transfer (in less than 48 hours) within the second phase. […]

[2] = Potentiometric determination of salt (KCl) release from a monodisperse double emulsion
Method: A monodisperse water-in-dodecane inverse emulsion which is stabilized with Span 80 is prepared.
The aqueous phase (80% by volume) is introduced with gentle shearing (of the order of 1000 s^−1) into a continuous phase composed of a dodecane/Span mixture (1:1 by mass). The aqueous phase comprises 1 mol per liter of potassium chloride. This salt acts as active substance which has to be released. The initial polydisperse emulsion is converted by a fractional crystallisation technique, so as to obtain a monodisperse emulsion (Bibette J., J. Colloid Interface Sci., 1991, 147, 474).
The preceding inverse emulsion is emulsified in its turn in an aqueous phase comprising a hydrophilic surface active agent (SDS). A double emulsion is thus obtained composed of oily globules comprising water droplets, which droplets result from the first stage.
The double emulsion is manufactured using a microfluidizer (Jet homogenizer from Labplant). This method consists in bringing the disperse phase and the continuous phase into contact under very high pressure and in then injecting the mixture via a hole with a small diameter (0.1 mm).
The concentration of the KCl initially incorporated in the internal aqueous phase of the double emulsion is measured in the external aqueous phase by potentiometry.
The potentiometric quantitative determination is based on the measurement of a difference in potential between an indicator electrode (Ag/AgCl) and a reference electrode (mercurous sulphate electrode) which are immersed in the colloidal solution comprising the electrolyte to be quantitatively determined (Cl^− ion). The concentration of the Cl^− ion is in this case directly related to the potential ΔE of the Ag/AgCl electrode by a relationship of the type:
ΔE=β+α log Cq (Nernst relationship).
It is then possible, via a calibration line, to know at any moment the concentration of Cl^− ion released into the external aqueous phase.
The results obtained are presented in graphical form in FIG. 1. […]

[3] = Stability of the multiple emulsion versus surfactant concentration in the external phase (microscope)
Method: In this test, a multiple emulsion is prepared by dispersing the inverse emulsion in a continuous aqueous phase comprising the SDS surfactant at a concentration equal to one tenth of its critical micelle concentration. The inverse phase is the same as that described above in Example 1: the fraction by volume of water drops is present therein at a concentration of 10% by volume with 0.1 mol/l of NaCl for a concentration of surfactant of 2%. The multiple emulsion is therefore composed of 90% by volume of an external aqueous phase and of 10% of the inverse phase. A high degree of shearing, of the order of 10,000 revolutions per minute, is applied using an Ultra-turrax device for 10 seconds to a total volume of […] of the overall composition, which results in the appearance of double drops in which the water content and the size of the droplets are retained.
Double drops are observed, with each of them comprising small inverse water drops.
This test is repeated, the concentration of the surfactant within the external aqueous phase Ce being varied and the double emulsion being freshly prepared, and the duration of existence of the internal water droplets is recorded. […] This transition takes place for exactly the same concentration as that mentioned in Example 1, that is to say approximately 10 CMC. […] It is thus observed, under a microscope, that only phenomena of coalescence between the tiny inverse water drops and the interface of the direct drops are responsible for the change which is observed.
Only a gradual decrease in the concentration of internal droplets is observed.

[4] = Characteristic release time by phase-contrast optical microscopy; conditions: assessed visually using a microscope
Method: Various emulsions are prepared according to the procedure defined in Example No. 1. The concentration of the surface-active agent (SDS) present in the external aqueous phase is varied and the change over time of the double emulsion is observed with a phase-contrast optical microscope (Zeiss Axiovert 100). The curve in FIG. 2 describes the change in the characteristic release time as a function of the concentration of surface-active agent present in the external aqueous phase. The characteristic release time is defined as the time at the end of which virtually all the droplets of phase A1 have been released into the external aqueous phase A2 (by coalescence). As indicated, this time is assessed visually using a microscope. It will be noted that the release time changes from several days, when the concentration is less than 10 CMC, to only a few hours, when the concentration is equal to 40 CMC.

[5] = Multiple emulsions with Tween 80 in aqueous phase A2: transfer of internal water droplets; conditions: Tween 80 as surfactant in aqueous phase A2
Method: Multiple emulsions are prepared according to the procedure described in the preceding examples by using Tween 80 in the aqueous phase A2 as surfactant. Its HLB is 15 and its critical micelle concentration is […]. The same type of result is observed. Transfer of the internal water droplets is also dependent on the concentration Ce of the surfactant in the external phase. In this case, the limit concentration is approximately 200 CMC.
It is observed for this surfactant that the internal water droplets coalesce with one another. This instability appears rapidly and results in a few internal water drops with a greater surface area, still imprisoned in the oily globules.

Row | SMILES | time for transfer of the water droplets within the second phase ([1]; above the limit concentration (approximately 10 CMC)) | concentration at which transfer via coalescence takes place ([1]; same test with gentle centrifuging for 15 minutes) | limit concentration of surfactant below which the water droplets do not transfer to the second phase ([1]; water-in-dodecane inverse emulsion (Span 80, NaCl 0.1M) on water with AgNO3 10^−3 mol/l, no transfer even for several days below the limit) | concentration threshold ([2]; KCl double emulsion, globules 4 μm, droplets 0.3 μm) | time corresponding to complete release of the salt ([2]; SDS concentration greater or equal to 10 CMC, KCl 1 mol per liter in internal phase, release by coalescence) | release of the salt into the external aqueous phase ([2]; SDS concentration less than 10 CMC, passive diffusion, emulsion retains its double nature) | coalescence between the big double globules ([3]; SDS at one tenth of its CMC in external phase, after storage for two months) | period of time for conversion into a direct emulsion ([3]; SDS concentration above the transition (approximately 10 CMC)) | duration for which the double emulsion is retained ([3]; SDS concentration below the transition (approximately 10 CMC)) | concentration at which the double emulsion is converted into a direct emulsion (transition) ([3]; freshly prepared double emulsion, NaCl 0.1 mol/l internal phase, Span 80 2%) | characteristic release time ([4]; SDS concentration equal to 40 CMC) | characteristic release time ([4]; SDS concentration less than 10 CMC) | limit concentration for transfer of the internal water droplets [5]
1 | CCCCCCCCCCCCOS(=O)(=O)[O-].[Na+] [SDS, sodium dodecyl sulphate] | less than 48 hours | 10 CMC | approximately 10 CMC | 10 CMC | less than 500 minutes | very slow | No phenomenon of coalescence | a few hours | more than one month | approximately 10 CMC | a few hours | several days | 
2 | CCCCCCCC/C=C\CCCCCCCC(=O)OCCOCC(OCCO)C1OCC(OCCO)C1OCCO (stereo not shown) [Tween 80] |  |  |  |  |  |  |  |  |  |  |  |  | approximately 200 CMC
